IC50 data for 55 compounds are collected here from PubChem BioAssay AID1117296 (The Scripps Research Institute Molecular Screening Center, 2014).

Calls of active or inactive are those of the source.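 The calls were made as follows: active = IC50 at or below 10 µM; inactive = IC50 above 10 µM.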

The test system of the assay is HuH7 TTR-promoter Gaussia luciferase reporter, luminescence. As to the kind of experiment: potency of TTR promoter reporter decrease in HuH7 – cell-based, luminescence, HuH7 hepatoma, IC50, counter-screen for TTR transcription activator project, dose response (AID 1117296). On the technique in general: Counterscreens check selectivity or assay interference.

The term IC50 denotes the concentration that inhibits the measured activity by half. In the case of `OCCNc1c2ccccc2nc2ccccc12`, the IC50 is 54.9 µM (inactive).
Under `CCOC(=O)Nc1nc(-c2ccccc2)c(C(=O)c2ccc(Cl)cc2)s1` stands > 55.2 µM (inactive); under `c1ccc(Sc2ncnc3c2oc2ccccc23)nc1`, 142 µM (inactive).
For the compound `CCOc1ccc(N=C2NC(=O)S/C2=C\c2ccc(O)cc2)cc1`, the IC50 was > 167 µM (inactive).
`N=c1ccn(CC(=O)NC(N)=O)c2ccccc12`: the IC50 is > 167 µM (inactive).
For the compound `Cn1cc(Br)c(C(=O)N2CCc3ccccc32)n1`, the IC50 was > 167 µM (inactive).
On to `CCCCn1c(O)c(C(=O)/C=C/c2ccc3c(c2)OCO3)c(=O)[nH]c1=O`, for which the IC50 was 90.9 µM (inactive).
As to `COc1ccc(C(=O)NC2CCCc3c2cnn3-c2cc(F)cc(F)c2)c(OC)c1OC` (stereo not given), the IC50 is 61.9 µM (inactive).
Take `O=[N+]([O-])c1cccc(-c2noc(-c3ccco3)n2)c1`: the IC50 is > 167 µM (inactive).
For the compound `O=C(O)c1ccc(CSc2nnc(Cc3ccccc3)o2)cc1`, the IC50 was 27.3 µM (inactive).
Consider `CN(C)CCNc1ccc(CO)c2oc3ccc(O)cc3c(=O)c12`, for which the IC50 is > 55.2 µM (inactive).
For the compound `Cc1cc(C)n(CC(=O)n2c(C)c(C)c3ccccc32)n1`, the IC50 is > 167 µM (inactive).
Under `O=c1cc(O)c2sc(Nc3ccc(Cl)c(F)c3)nc2[nH]1` stands > 167 µM (inactive); under `COc1ccc([C@@H]2CC=C(C(=O)O)[C@H](c3ccccc3F)N2S(=O)(=O)c2ccccc2C)cc1`, 66.3 µM (inactive); under `CC(C)CNC(=O)CSc1nnc2ccccn12`, > 167 µM (inactive).
For `Cc1ccc(CNC(=O)Cc2ccc(-c3ccccc3)cc2)cc1`, the IC50 is > 167 µM (inactive).
`Cc1c(Br)c(C(=O)N2CCc3ccccc32)nn1C`: the IC50 was > 167 µM (inactive).
With `COc1ccc2cc3c(N)nn(C(=O)c4ccccc4[N+](=O)[O-])c3nc2c1`, the IC50 is 34.8 µM (inactive).
Under `CCn1ncc(/C=N\NC(=O)c2csc3ccccc23)c1C` stands > 167 µM (inactive); under `Cc1nnc(SCc2ccc(Cl)cc2)nc1/C=C/N(C)C`, 81.3 µM (inactive); under `Cn1cc(C2CC(c3ccccc3)=NN2C(=O)c2ccccc2)c2ccccc21` (stereo not given), > 167 µM (inactive).
In the case of `CCCC(=O)NC1=C(N2CC2)C(=O)C(NC(=O)CCC)=C(N2CC2)C1=O`, the IC50 was 23.5 µM (inactive).
Turning to `C=CCn1c(=O)c2c(nc3n2CC(C)CN3Cc2ccccc2)n(C)c1=O` (stereo not given), the IC50 was 82.5 µM (inactive).
As for `Cc1ccc(C2CC(c3ccccc3)=NN2C(=S)Nc2ccccc2)o1` (stereo not given), the IC50 is > 167 µM (inactive).
Under `C/C(=N\Nc1ncc(Br)cn1)c1cccc([N+](=O)[O-])c1` stands > 167 µM (inactive).
As for `CCCNC(=O)c1ccc(N2CCC3(CC2)CC(c2ccccc2)=NO3)c(NC(=O)c2ccco2)c1`, the IC50 is > 167 µM (inactive).
As for `c1cc2c(cc1C1=Nn3c(nnc3C3CCCCC3)SC1)OCO2`, the IC50 was 47.1 µM (inactive).
With `COc1ccc(CCNc2c3ccccc3nc3ccccc23)cc1OC` the figure was 54.4 µM (inactive).
As for `Cc1ccc(/C=N/NC(=O)c2csc(C)c2)o1`, the IC50 is 116 µM (inactive).
As to `CC(Oc1ccccc1)C(=O)N1CCN=C1SCc1ccccc1` (stereo not given), the IC50 was 70.7 µM (inactive).
`Cc1c(NS(=O)(=O)c2ccc(NC3CCCC3)c([N+](=O)[O-])c2)c(=O)n(-c2ccccc2)n1C`: the IC50 is > 167 µM (inactive).
Regarding `Cc1ccc([C@H]2C[C@@H](O)[C@H](n3cc(-c4ccc(F)cc4)nn3)CN2C(=O)c2cccs2)cc1`, the IC50 was 63 µM (inactive).
As to `CN(C)CC(CCC(CN(C)C)C(O)(c1ccccc1)c1ccccc1)C(O)(c1ccccc1)c1ccccc1` (stereo not given), the IC50 is 17.2 µM (inactive).
Under `Cn1ncc(Cl)c1C(=O)N1CCc2ccccc21` stands > 167 µM (inactive); under `COc1ccc2[nH]c3c(Cl)ncnc3c2c1`, > 167 µM (inactive); under `O=C/C(=C\Nc1ccccn1)c1nc2ccccc2o1`, > 18.4 µM (inactive).
As to `Cc1cccc(NC(c2ccc(O)cc2)c2ccc3ccc(C)nc3c2O)n1` (stereo not given), the IC50 was 61.8 µM (inactive).
In the case of `COc1ccc(-c2cc(C)no2)cc1S(=O)(=O)NCc1cccc(C)c1`, the IC50 is > 167 µM (inactive).
For the compound `CC(=O)c1cc(C(C)=O)c(C)nc1C`, the IC50 was > 167 µM (inactive).
`Cc1cc(C(=O)N2CCc3ccccc32)n(-c2ccccc2)n1`: the IC50 was 175 µM (inactive).
With `Cc1nn(C)c(C(=O)N2CCc3ccccc32)c1Br` the figure was > 167 µM (inactive); with `Cn1c(O)c(/C=C2\N=c3ccccc3=C2CCNC(=S)NC2CC2)c(=O)n(C)c1=O`, 45 µM (inactive); with `Cc1cnc(NC(=O)CCCc2nc3ccccc3s2)s1`, > 167 µM (inactive).
`Cc1c(C(=O)N2CCc3ccccc32)cnn1C`: the IC50 is > 167 µM (inactive).
Take `Cn1nccc1C(=O)N1CCc2ccccc21`: the IC50 was > 167 µM (inactive).
In the case of `Cc1ccc(Nc2c3c(nc4ncnn24)CCC3)cc1`, the IC50 is > 167 µM (inactive).
Take `Cc1cccc(N(C)c2ncnc3onc(-c4ccc(F)cc4)c23)c1C`: the IC50 was > 55.2 µM (inactive).
On to `CC1CN(Cc2ccccc2)c2nc3c(c(=O)n(CC(N)=O)c(=O)n3C)n2C1` (stereo not given), for which the IC50 was > 167 µM (inactive).
Turning to `Cn1ncc(Br)c1C(=O)N1CCc2ccccc21`, the IC50 was > 167 µM (inactive).
For the compound `COc1cccc(-c2csc(NC(=O)C3CC3)n2)c1`, the IC50 was 103 µM (inactive).
`COc1ccc(-c2noc(-c3cccs3)n2)cc1OC`: the IC50 is > 167 µM (inactive).
On to `[O-]/C(=C(\C(=S)Nc1ccc(SC(F)F)cc1)[n+]1ccccc1)c1cc(Cl)ccc1Cl`, for which the IC50 was > 167 µM (inactive).
On to `Cc1ccccc1Cn1cc(COC(=O)N(C)Cc2ccccc2)nn1`, for which the IC50 is 115 µM (inactive).
With `O=C(CCl)c1cc2c3c(c1)CC(=O)N3CCC2` the figure was 19.8 µM (inactive); with `CN(Cc1ccccc1)C(=O)c1[nH]cnc1C(=O)NCC(=O)OC(C)(C)C`, > 167 µM (inactive).
